Laboratory results taken from US20180200233A1, “COMPOSITIONS FOR PREVENTING CANCERS ASSOCIATED WITH HUMAN PAPILLOMA VIRUSES” (Loma Linda University, priority 2015, published 2018).
pEC50: −log10 of the molar value.

Tests used:
in vitro = type: cell-based, human; settings: human
Protocol: (§1) FIGS. 3A-E are graphs providing data regarding resistance of HPV^+ SiHa cells to TRAIL-, cisplatin- and […] apoptosis, in the presence and absence of small molecules as disclosed herein. (FIG. 3A) HPV^+ SiHa cells are resistant to TRAIL-induced apoptosis as compared to the human osteosarcoma cell line U2OS. Cells (2×10^4 cells per well) were seeded into a 96-well plate, allowed to incubate overnight, and then treated with indicated concentration of TRAIL in the presence of cycloheximide (5 μg/ml). The viability of cells was measured after overnight incubation using the MTT assay; the viability of cells untreated with TRAIL was set at 100% for each group. (FIG. 3B) The indicated concentrations of three small molecules were added to SiHa cells, and an MTT assay was preformed after overnight incubation. The viability of cells untreated with small molecules was set as 100%. (FIG. 3C) The indicated concentrations of myricetin or spinacine were added 4 h prior to TRAIL (100 ng/ml) in the presence of cycloheximide (5 μg/ml) and incubated at 37° C. overnight. The viability of cells untreated with small molecules was set at 100%. (FIG. 3D and FIG. 3E) SiHa cells (2×10^4 cells per well) were seeded into a 96-well plate and allowed to incubate overnight. 100 μM of myricetin and 50 μM of spinacine were added 4 h prior to either (FIG. 3D) doxorubicin or (FIG. 3E) cisplatin. Cell viability was measured after overnight incubation using the MTT assay, and the viability of cells untreated with either myricetin or spinacine was set at 100%. Experiments were performed in triplicate, and error bars indicate the standard deviation.
(§2) The molecules were then tested to determine whether those that block E6/caspase 8 binding in vitro could also act in the context of a cell. SiHa cells are an HPV^+ cell line, derived from a cervical carcinoma, which serves as a commonly used model for HPV-associated malignancies. To determine whether HPV^+ SiHa cells are resistant to TRAIL-induced apoptosis, SiHa cells were treated with TRAIL and cell viability was assessed. TRAIL-sensitive, HPV^− U2OS cells served as a positive control. […] Myricetin and/or spinacine were tested to determine if they could sensitize these HPV^+ cells to TRAIL-induced apoptosis. […] Table 2 lists and compares the concentrations of the three tested compounds required to induce death in 50% of SiHa cells in the presence or absence of TRAIL.
The extracellular domain of human TRAIL was cloned into a pTriEx expression plasmid containing N-terminal Hisx6 tag. His-TRAIL was expressed in the E. coli BL-21 pLys strain and purified as previously described. Doxorubicin and cisplatin were purchased from Sigma. His-TRAIL, doxorubicin, and cisplatin were diluted in PBS to the desired concentration before using. To measure cell survival following treatment with TRAIL, cisplatin and doxorubicin, SiHa (2×10^4/well), C33A (1×10^4/well), and HNSCC cells (2×10^4/well) were seeded into 96-well plates and allowed to adhere overnight. Small molecules at the desired concentration were added and incubated at 37° C. for 4 h. As indicated, TRAIL, cisplatin or doxorubicin was then added. […] All experiments were repeated at least three times (three biological replicates, carried out on different days), with each experimental group measured in triplicate within each of these individual experiments. […]

SiHa cells = experiment: MTT cell viability, SiHa cells, TRAIL-induced apoptosis; type: cell-based, human; settings: for increase in cell death in the presence than in the absence of TRAIL: from the EC50 values of Table 2; for concentration required to inhibit binding and to sensitize cells: cell sensitization experiments
Protocol: as §1
FIGS. 5A-B are graphs showing myricetin and spinacine (5) re-sensitized HPV^+, but not HPV^−, cells to treatment with TRAIL. SiHa (2×10^4 cells per well) and C33A cells (1×10^4 cells per well) were seeded into a 96-well plate and allowed to incubate overnight, then cells were pre-treated in the presence or absence of myricetin (100 μM) (FIG. 5A) or spinacine (50 μM) (FIG. 5B) for 4 h. The indicated concentration of TRAIL, along with cycloheximide (5 μg/ml) was added and cells were allowed to incubate overnight. Cell viability was measured by MTT assay, and the viability of cells untreated with TRAIL was set at 100%. Experiments were performed in triplicate, and error bars indicate the standard deviation.
as §2
The extracellular domain of human TRAIL was cloned into a pTriEx expression plasmid containing N-terminal Hisx6 tag. His-TRAIL was expressed in the E. coli BL-21 pLys strain and purified as previously described. Doxorubicin and cisplatin were purchased from Sigma. His-TRAIL, doxorubicin, and cisplatin were diluted in PBS to the desired concentration before using. To measure cell survival following treatment with TRAIL, cisplatin and doxorubicin, SiHa (2×10^4/well), C33A (1×10^4/well), and HNSCC cells (2×10^4/well) were seeded into 96-well plates and allowed to adhere overnight. Small molecules at the desired concentration were added and incubated at 37° C. for 4 h. As indicated, TRAIL, cisplatin or doxorubicin was then added. […]

Q: With `OCn1cnc2ccccc21` [Compound 3, 1H-benzimidazole-1-methanol] as the compound, how does the pEC50 (in vitro) read?
A: 3.55

Q: What about the “EC50 for TRAIL-induced apoptosis” value (SiHa cells; SiHa cells, compound added 4 h prior to TRAIL 100 ng/ml + cycloheximide 5 μg/ml, overnight, MTT) of the same compound?
A: No sensitization

Q: With `O=C(O)C1Cc2[nH]cnc2CN1` (stereo not drawn) [Compound 5, 4,5,6,7-Tetrahydro-1H-imidazo(4,5-c)pyridine-6-carboxylic acid] as the compound, how does the pEC50 (in vitro) read?
A: 3.57

Q: And the “increase in cell death in the presence than in the absence of TRAIL” value (SiHa cells; SiHa cells)?
A: 8.6 fold

Q: What about the “concentration required to inhibit binding and to sensitize cells” value (SiHa cells) of the same compound?
A: 50 µM

Q: Which results are given for `O=c1c(O)c(-c2cc(O)c(O)c(O)c2)oc2cc(O)cc(O)c12` [Myricetin, reference compound]?
A: pEC50 (in vitro): 3.27; sensitivity of SiHa cells to TRAIL after pre-treatment (in words) (SiHa cells; 100 μM myricetin or 50 μM spinacine for 4 h, TRAIL up through 100 ng/ml): sensitivity increased dramatically; increase in cell death in the presence than in the absence of TRAIL (SiHa cells; SiHa cells): 3.5 fold; concentration required to inhibit binding and to sensitize cells (SiHa cells): 100 µM
